According to patent US7928206B2 (priority 2002, dated 2011):
Read-outs that look alike come from different tables or passages of the source.

Assays:
[1] = AZT monophosphate kinase activity; type: biochemical; settings: 30 mU enzyme, 100 μM 3H-labelled substrate
Protocol: (§1) 5 μl, of this mixture were plated on polyethylenimine-cellulose plates, which were developed ascending in 0.5 M […]. The spots with the nucleosides and nucleotides were identified under UV light and cut out.
The radioactivity in the spots was extracted with 0.2 M KCl in 0.1 M HCl, and determined by liquid scintillation counting. 1 pmol radioactive nucleoside/tide counts 850 cpm. […]

[2] = dTMP kinase activity (monophosphate to diphosphate); type: biochemical; settings: 30 mU enzyme, 100 μM 3H-labelled substrate, 0 to 120 minutes
Protocol: as §1
The radioactivity in the spots was extracted with 0.2 M KCl in 0.1 M HCl, and determined by liquid scintillation counting. 1 pmol radioactive nucleoside/tide counts 850 cpm.
The cpm obtained at the indicated times (15, 30, 60, 90 and 120 minutes, respectively) are determined in the TDP spots derived from 2.5 μl of the reaction mixture.

[3] = target: T1, rAT-ΔN45TK1b, Arabidopsis thaliana thymidine kinase AT-TK1b (SEQ ID NO: 13) with N-terminal deletion of 45 amino acids (Arabidopsis thaliana, UniProt F4KBF5); settings: substrate Thd; data from Le Breton C, B. Sc. Report 2002; cited from earlier work
T1 sequence (F4KBF5 51-282): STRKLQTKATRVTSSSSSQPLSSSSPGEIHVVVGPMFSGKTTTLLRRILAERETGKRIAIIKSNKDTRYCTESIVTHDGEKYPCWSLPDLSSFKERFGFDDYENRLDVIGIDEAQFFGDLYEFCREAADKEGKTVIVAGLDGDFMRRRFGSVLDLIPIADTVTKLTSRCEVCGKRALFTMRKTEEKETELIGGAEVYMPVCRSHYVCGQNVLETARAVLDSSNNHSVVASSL

[4] = target: T2, rAT-TK1a, Arabidopsis thaliana thymidine kinase AT-TK1a, recombinant wild type, SEQ ID NO: 9 (Arabidopsis thaliana, UniProt Q9S750); settings: substrate Thd, data from Le Breton C, B. Sc. Report 2002, cited from earlier work
[5] = tested on: glioblastoma U-87 MG cells transduced with pLCXSN (retroviral vector alone); test: cells; settings: Homo sapiens, 120 h, 5 days of drug exposure
[6] = target: T2, rAT-TK1a, Arabidopsis thaliana thymidine kinase AT-TK1a, recombinant wild type, SEQ ID NO: 9; test: Kinetic constants of purified recombinant thymidine kinase (rAT-TK1a); type: biochemical, thale cress (Arabidopsis thaliana); settings: substrate AZT
Protocol: (§2) Transformed KY895 were grown to an OD600 nm of 0.5-06 in LB/Ampicillin (100 μg/ml) medium at 37° C. and protein expression was induced by addition of IPTG to make 100 μM. The cells were further grown for 4 h at 25° C. and subsequently harvested by centrifugation.

[7] = target: T1, rAT-ΔN45TK1b, Arabidopsis thaliana thymidine kinase AT-TK1b (SEQ ID NO: 13) with N-terminal deletion of 45 amino acids; test: Kinetic constants of purified recombinant thymidine kinase (rAT-ΔN45TK1b); type: biochemical, thale cress (Arabidopsis thaliana); settings: substrate AZT
Protocol: An N-terminal deletion of 45 amino acids was achieved by using the primers
The resulting plasmid was named pGEX-2T-AT-ΔN45TK1b (P663).
as §2

[8] = target: rHSV1-TK, human Herpes simplex virus type 1 thymidine kinase (Human alphaherpesvirus 1 strain 17, UniProt P0DTH5); test: Kinetic constants of purified recombinant thymidine kinase (rHSV1-TK); type: biochemical; settings: substrate AZT
Protocol: as §2

[9] = tested on: glioblastoma U-87 MG cells transduced with HSV1-TK (human Herpes simplex virus type 1 thymidine kinase); test: Cell proliferation (XTT), sensitivity to AZT; type: cell-based; settings: 120 h, 5 days of drug exposure
Protocol: (§3) Each experiment was performed in four replicates.

[10] = Cell proliferation (XTT), sensitivity to AZT; type: cell-based; settings: Homo sapiens, U-87 MG, 120 h, 5 days of drug exposure
Protocol: (§4) Arabidopsis constructs based on AT-TK1a were cut with BamHI/XhoI, and tomato PCR fragments were cut with BglII/XhoI, and cloned into the BglII-XhoI site of plasmid vector pLCXSN, which is a retroviral transfer vector derived from pLXSN (Clontech, cat# K1060-B) by insertion of the CMV promoter upstream of the polylinker.
as §3

[11] = tested on: glioblastoma U-87 MG cells transduced with PZG53: AtTK1 (AT-TK1a, Arabidopsis thaliana, SEQ ID NO: 9); test: Cell proliferation (XTT), sensitivity to AZT; type: cell-based; settings: Homo sapiens, 120 h, 5 days of drug exposure
Protocol: as §4, §3

[12] = tested on: glioblastoma U-87 MG cells transduced with PZG69: TomTK1 (tomato TK1, SEQ ID NO: 4); test: cells; settings: Homo sapiens, 120 h, 5 days of drug exposure
Protocol: as §4, §3

Glioblastoma U-87 MG = test: Cell proliferation assay (XTT), sensitivity to AZT of transduced cells; type: cell-based; settings: Homo sapiens, parental U-87 MG, construct None
Protocol: 293T packaging cells (ATTC CRL-11268) were cultured at 37° C. in OPTIMEM 1 medium (Life Technologies, Inc.). The constructed pLCXSN plasmid vector was transfected into the packaging cells using LipofectAMINE PLUS (Life Technology Inc.) according to the protocol provided by the supplier. The medium from the transfected cells was collected 48 hours after transfection, filtered through a […] filter, pelleted by ultracentrifugation (50,000×g, 90 minutes at 4° C.) and dissolved in TEN buffer (100 mM NaCl, 10 mM Tris pH 7.5, 1 mM EDTA).
The virus-containing buffer was subsequently used to transduce the cancer cell lines with MOI of 5.
as §3

[13] = target: rTOM-TK1, tomato (Lycopersicum esculentum) thymidine kinase, recombinant wild type, SEQ ID NO: 4 (Solanum lycopersicum, UniProt Q71F77); type: biochemical; settings: substrate AZT
Protocol: as §2

[14] = Kinetic constants of purified recombinant TK, substrate AZT; settings: from Tables 6 and 7
[15] = transient polyclonal cell lines

Sequence of rHSV1-TK, human Herpes simplex virus type 1 thymidine kinase (P0DTH5 whole entry): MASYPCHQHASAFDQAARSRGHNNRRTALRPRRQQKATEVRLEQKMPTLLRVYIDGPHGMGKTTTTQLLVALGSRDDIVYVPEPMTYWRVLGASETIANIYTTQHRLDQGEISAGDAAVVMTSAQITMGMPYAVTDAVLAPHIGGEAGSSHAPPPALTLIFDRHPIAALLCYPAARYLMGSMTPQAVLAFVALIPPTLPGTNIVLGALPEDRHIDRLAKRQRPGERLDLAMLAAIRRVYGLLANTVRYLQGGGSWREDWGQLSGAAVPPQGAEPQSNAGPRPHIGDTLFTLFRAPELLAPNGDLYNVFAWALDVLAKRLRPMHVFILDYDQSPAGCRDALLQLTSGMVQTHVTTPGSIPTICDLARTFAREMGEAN

Molecule: HSV1-TK: human Herpes simplex virus type 1 thymidine kinase, control; in Table 4 expressed from the pLCXSN vector, in Example 6 purified enzyme
- degree of phosphorylation of AZT-monophosphate, lower than the thymidine substrate [1]: 10 fold
- phosphorylation of AZT-monophosphate ([1]; 0 to 120 minutes): phosphorylates both substrates
- phosphorylation of TMP to TDP [2]: phosphorylates both substrates

Molecule: Cc1cn([C@H]2C[C@H](O)[C@@H](CO)O2)c(=O)[nH]c1=O [Thd, thymidine]
- Vmax for Thd [3]: 165 mU/mg
- kcat for Thd [3]: 0.071 s⁻¹
- Km ([4]; read-out: Km for Thd): 85 µM
- Vmax for Thd [4]: 452 mU/mg
- kcat for Thd [4]: 0.2 s⁻¹

Molecule: Cc1cn([C@H]2C[C@H](N=[N+]=[N-])[C@@H](CO)O2)c(=O)[nH]c1=O [AZT, 3′-azido-3′-deoxythymidine]
- IC50 ([5]; stable polyclonal cell lines): 4070 µM
- IC50 [5, 15]: > 5000 µM
- Km [6]: 3.55 µM
- Vmax for AZT [6]: 244 mU/mg
- kcat for AZT [6]: 0.106 s⁻¹
- Vmax for AZT [7]: 242 mU/mg
- kcat for AZT [7]: 0.104 s⁻¹
- Km ([8]; read-out: Km for AZT): 1.7 µM
- Vmax for AZT [8]: 4.1 mU/mg
- kcat for AZT [8]: 0.028 s⁻¹
- IC50 ([9]; stable polyclonal cell lines): 2580 µM
- IC50 [9, 15]: > 5000 µM
- IC50 ([10]; stable polyclonal cell lines, cells transduced with PZG56 construct): 132 µM
- IC50 ([10]; stable polyclonal cell lines, cells transduced with PZG59 construct): 25.1 µM
- IC50 ([10]; transient polyclonal cell lines, cells transduced with PZG56 construct): 303 µM
- IC50 ([10]; transient polyclonal cell lines, cells transduced with PZG59 construct): 26 µM
- IC50 ([11]; stable polyclonal cell lines): 71.9 µM
- IC50 [11, 15]: 97 µM
- IC50 ([12]; stable polyclonal cell lines): 17 µM
- IC50 [12, 15]: 47 µM
- IC50 (Glioblastoma U-87 MG; listed under stable polyclonal cell lines): 2440 µM
- IC50 (Glioblastoma U-87 MG; listed under transient polyclonal cell lines): 4470 µM
- Km [13]: 22.4 µM
- Vmax for AZT [13]: 1579 mU/mg
- kcat for AZT [13]: 0.681 s⁻¹

B1: rAT-TK1a: purified recombinant Arabidopsis thaliana thymidine kinase TK1a, SEQ ID NO: 9 (protein, listed as Arabidopsis thaliana)
chain: MATLKASFLIKTLDSDVTGDFLSDLERRGSGAVHVIMGPMFSGKSTSLLRRIKSEISDGRSVAMLKSSKDTRYAKDSVVTHDGIGFPCWALPDLMSFPEKFGLDAYNKLDVIGIDEAQFFGDLYEFCCKVADDDGKIVIVAGLDGDYLRRSFGAVLDIIPIADSVTKLTARCEVCGHKAFFTLRKNCDTRTELIGGADVYMPVCRKHYITNHIVIKASKKVLEDSDKARAESCVAATI
- ratio [kcat/Km (Thd)]/[kcat/Km (AZT)] [14]: 0.08

B2: rTOM-TK1: purified recombinant tomato (Lycopersicum esculentum) thymidine kinase, SEQ ID NO: 4 (protein, listed as Lycopersicon esculentum)
chain: MAFSSSARNPVDLRNGSKNSFCPVGEIHVIVGPMFAGKTTALLRRVNLESNDGRNVVLIKSSKDARYAVDAVVTHDGTRFPCWSLPDLSSFKQRFGKDAYEKVDVIGIDEAQFFGDLYEFCCNAADFDGKIIVVAGLDGDYLRKSFGSVLDIIPLADTVTKLTARCELCNRRAFFTFRKTNETETELIGGADIYMPVCRQHYVNGQSVNESAKMVLESHKVSNELILESPLVDP
- ratio [kcat/Km (Thd)]/[kcat/Km (AZT)] [14]: 1.07
